{
  "source": "patent US20230099441A1",
  "about": "“HETEROCYCLIC COMPOUND, APPLICATION THEREOF, AND COMPOSITION CONTAINING SAME” (GenEros Biopharma Ltd., priority 2019, published 2023)",
  "key": {"[1]": {"system": "mouse collagen-induced arthritis model", "experiment": "Therapeutic efficacy in a mouse collagen-induced arthritis model (clinical score)", "assay_type": "in vivo", "details": "mean of group, total score 0-12, oral, Methotrexate 0.25 mg/kg once a week, Tofacitinib 5 mg/kg once a day, X8 1 mg/kg once a day", "text": "Example of Effect 2: Evaluation of the Therapeutic Efficacy of X8 Compound in a Mouse Collagen-Induced Arthritis Model\n(§1) Sixty male DBA/1J mice (9-10 weeks old, H-2q haplotype) were acclimatized in a standard animal room for one week and then randomly divided into 5 groups. Except for the healthy control group, the rest were inoculated with collagen antigen injection, and then received oral treatment with different compounds. The brief procedure was to mix bovine type II collagen (purchased from Chondrex, 20021) with an equal volume of Freund's complete adjuvant (purchased from Sigma, F5881), the concentration was 4 mg/ml, and it was treated with a homogenizer at a speed of 20,000 revolutions/min for 5-10 minutes. A needle was inserted between the left side of the dorsal caudal artery and the lateral vein of the mouse, and 50 microliters of modeling agent was injected subcutaneously. 21 days after the first injection, another injection was injected between the right side of the dorsal tail artery and the lateral vein of the mouse. After the first injection, oral administration was started. The drug was formulated with […] PEG300, and it was prepared for immediate use. […] The total score was between 0-12 points, and the swelling of the foot after vaccination was not calculated."}, "[2]": {"experiment": "Body weight of animals in the mouse collagen-induced arthritis model", "assay_type": "in vivo", "details": "oral, X8 1 mg/kg once a day; for body weight of animals, Mean/g: mean of group, Methotrexate 0.25 mg/kg once a week, Tofacitinib 5 mg/kg once a day", "text": "as §1"}},
  "data": [
    {"molecule": "C[C@@H]1CCN(C(=O)CC#N)C[C@@H]1N(C)c1ncnc2[nH]ccc12", "note": "[Tofacitinib, tofacitinib]", "values": [
      {"measurement": "clinical score of arthritis, Mean (the larger the value, the more severe the disease)", "setting": "[1]; day 0", "result": 0.00},
      {"measurement": "clinical score of arthritis, Mean (the larger the value, the more severe the disease)", "setting": "[1]; day 21", "result": 0.00},
      {"measurement": "clinical score of arthritis, Mean (the larger the value, the more severe the disease)", "setting": "[1]; day 25", "result": 0.00},
      {"measurement": "clinical score of arthritis, Mean (the larger the value, the more severe the disease)", "setting": "[1]; day 28", "result": 0.81},
      {"measurement": "clinical score of arthritis, Mean (the larger the value, the more severe the disease)", "setting": "[1]; day 31", "result": 1.83},
      {"measurement": "clinical score of arthritis, Mean (the larger the value, the more severe the disease)", "setting": "[1]; day 33", "result": 2.19},
      {"measurement": "clinical score of arthritis, Mean (the larger the value, the more severe the disease)", "setting": "[1]; day 35", "result": 2.52},
      {"measurement": "clinical score of arthritis, Mean (the larger the value, the more severe the disease)", "setting": "[1]; day 38", "result": 2.77},
      {"measurement": "clinical score of arthritis, Mean (the larger the value, the more severe the disease)", "setting": "[1]; day 40", "result": 2.62},
      {"measurement": "clinical score of arthritis, Mean (the larger the value, the more severe the disease)", "setting": "[1]; day 42", "result": 3.14},
      {"measurement": "clinical score of arthritis, Mean (the larger the value, the more severe the disease)", "setting": "[1]; day 45", "result": 2.90},
      {"measurement": "body weight of animals, Mean/g", "setting": "[2]; day 0", "result": 21.94, "unit": "g"},
      {"measurement": "body weight of animals, Mean/g", "setting": "[2]; day 4", "result": 22.41, "unit": "g"},
      {"measurement": "body weight of animals, Mean/g", "setting": "[2]; day 7", "result": 22.76, "unit": "g"},
      {"measurement": "body weight of animals, Mean/g", "setting": "[2]; day 11", "result": 22.79, "unit": "g"},
      {"measurement": "body weight of animals, Mean/g", "setting": "[2]; day 14", "result": 22.55, "unit": "g"},
      {"measurement": "body weight of animals, Mean/g", "setting": "[2]; day 18", "result": 22.87, "unit": "g"},
      {"measurement": "body weight of animals, Mean/g", "setting": "[2]; day 20", "result": 23.20, "unit": "g"},
      {"measurement": "body weight of animals, Mean/g", "setting": "[2]; day 25", "result": 22.48, "unit": "g"},
      {"measurement": "body weight of animals, Mean/g", "setting": "[2]; day 28", "result": 22.46, "unit": "g"},
      {"measurement": "body weight of animals, Mean/g", "setting": "[2]; day 31", "result": 22.37, "unit": "g"},
      {"measurement": "body weight of animals, Mean/g", "setting": "[2]; day 33", "result": 22.65, "unit": "g"},
      {"measurement": "body weight of animals, Mean/g", "setting": "[2]; day 35", "result": 22.43, "unit": "g"},
      {"measurement": "body weight of animals, Mean/g", "setting": "[2]; day 38", "result": 22.30, "unit": "g"},
      {"measurement": "body weight of animals, Mean/g", "setting": "[2]; day 40", "result": 20.90, "unit": "g"},
      {"measurement": "body weight of animals, Mean/g", "setting": "[2]; day 42", "result": 22.13, "unit": "g"},
      {"measurement": "body weight of animals, Mean/g", "setting": "[2]; day 45", "result": 22.30, "unit": "g"},
      {"measurement": "effect on body weight of animals (in words)", "setting": "[2]; whole experiment, days 0-45, methotrexate 0.25 mg/kg once a week, tofacitinib 5 mg/kg once a day", "result": "weight loss in the late stage of the experiment"}
    ]}
  ]
}
